Molecular target: T1, Cys12 of the KRAS 4B G12C protein (Homo sapiens, UniProt P01116, G12C)
T1 construct: This protein contained 188 amino acids in total, including an N-terminal 6-Histidine tag; made in house; host or cells: E. coli BL21
Assay: In vitro covalent adduct formation (CAF) assay, LC-MS intact mass
Format: binding
Settings: 10 uM compound
How it was run: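 Percent covalent modification from intact-mass LC-MS, by relative free versus adducted protein (adducts within 1 Da of expected mass). Reaction: 10 μM compound with 5 μM E. coli-expressed, GDP-exchanged KRAS 4B G12C in TBS pH 7.4, 4% DMSO, 1 h at 22° C.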

| Compound | % CAF 10 uM @ 60 min (60 min) [%] | % CAF 10 uM @ 60 min (60 min incubation) [%] |
| --- | --- | --- |
| C=CC(=O)N1CCN(c2nc(=O)n3c4c(c(-c5c(F)ccc6cnn(C)c56)c(C(F)(F)F)cc24)SC[C@@H]3COC)CC1 (atropisomer, axis not shown) [Example 1416, (3S,10R)-7-(4-acryloylpiperazin-1-yl)-10-(6-fluoro-1-methyl-1H-indazol-7-yl)-3-(methoxymethyl)-9-(trifluoromethyl)-2,3-dihydro-5H-[1,4]thiazino[2,3,4-ij]quinazolin-5-one] | 71.3 | – |
| C=CC(=O)N1[C@H](C)CN(c2nc(=O)n3c4c(c(-c5cc(Cl)c(F)cc5F)c(C(F)(F)F)cc24)SCC(COC)(COC)C3)C[C@@H]1C (atropisomer, axis not shown) [Example 1420, (S)-8-((3S,5R)-4-acryloyl-3,5-dimethylpiperazin-1yl)-11-(5-chloro-2,4-difluorophenyl)-3,3-bis(methoxymethyl)-10-(trifluoromethyl)-3,4-dihydro-2H,6H-[1,4]thiazepino[2,3,4-ij]quinazolin-6-one] | 93 | – |
| C=CC(=O)N1[C@H](C)CN(c2nc(=O)n3c4c(c(-c5cc(Cl)c(F)cc5F)c(C(F)(F)F)cc24)SCC(COC)(COC)C3)C[C@@H]1C (atropisomer, axis not shown) [Example 1421, (R)-8-((3S,5R)-4-acryloyl-3,5-dimethylpiperazin-1-yl)-11-(5-chloro-2,4-difluorophenyl)-3,3-bis(methoxymethyl)-10-(trifluoromethyl)-3,4-dihydro-2H,6H-[1,4]thiazepino[2,3,4-ij]quinazolin-6-one] | 91 | – |
| [2H]C([2H])([2H])OC[C@H]1CSc2c(-c3ccc(F)cc3F)c(C(F)(F)F)cc3c(N4C[C@@H](C)N(C(=O)C=C)[C@@H](C)C4)nc(=O)n1c23 (atropisomer, axis not shown) [Example 1423, (3S,10R)-7-((3S,5R)-4-acryloyl-3,5-dimethylpiperazin-1-yl)-10-(2,4-difluorophenyl)-3-((methoxy-d3)methyl)-9-(trifluoromethyl)-2,3-dihydro-5H-[1,4]thiazino[2,3,4-ij]quinazolin-5-one] | 95.1 | – |
| [2H]C([2H])([2H])OC[C@H]1CSc2c(-c3ccc(F)cc3F)c(C(F)(F)F)cc3c(N4C[C@@H](C)N(C(=O)C=C)[C@@H](C)C4)nc(=O)n1c23 (atropisomer, axis not shown) [Example 1424, (3S,10S)-7-((3S,5R)-4-acryloyl-3,5-dimethylpiperazin-1-yl)-10-(2,4-difluorophenyl)-3-((methoxy-d3)methyl)-9-(trifluoromethyl)-2,3-dihydro-5H-[1,4]thiazino[2,3,4-ij]quinazolin-5-one] | 95.4 | – |
| C=CC(=O)N1[C@H](C)CN(c2nc(=O)n3c4c(c(-c5ccc(F)cc5F)c(C(F)(F)F)cc24)SC[C@@H]3CN2CC[C@H](F)C2)C[C@@H]1C (atropisomer, axis not shown) [Example 1428, (3S,10S)-7-((3S,5R)-4-acryloyl-3,5-dimethylpiperazin-1-yl)-10-(2,4-difluorophenyl)-3-(((S)-3-fluoropyrrolidin-1-yl)methyl)-9-(trifluoromethyl)-2,3-dihydro-5H-[1,4]thiazino[2,3,4-ij]quinazolin-5-one] | 72 | – |
| C=CC(=O)N1[C@H](C)CN(c2nc(=O)n3c4c(c(-c5ccc(F)cc5F)c(C(F)(F)F)cc24)SC[C@@H]3CN2CC[C@H](F)C2)C[C@@H]1C (atropisomer, axis not shown) [Example 1429, (3S,10R)-7-((3S,5R)-4-acryloyl-3,5-dimethylpiperazin-1-yl)-10-(2,4-difluorophenyl)-3-(((S)-3-fluoropyrrolidin-1-yl)methyl)-9-(trifluoromethyl)-2,3-dihydro-5H-[1,4]thiazino[2,3,4-ij]quinazolin-5-one] | 79 | – |
| [2H]C([2H])=C([2H])C(=O)N1C[C@H](C)N(c2nc(=O)n3c4c(c(-c5cc(Cl)c(F)cc5F)c(C(F)(F)F)cc24)SCC2(COC2)C3)C[C@H]1C (atropisomer, axis not shown) [Example 1433, (S)-8′-((2S,5R)-4-(Acryloyl-d3)-2,5-dimethylpiperazin-1-yl)-11′-(5-chloro-2,4-difluorophenyl)-10′-(trifluoromethyl)-2′H,4′H,6′H-spiro[oxetane-3,3′-[1,4]thiazepino[2,3,4-ij]quinazolin]-6′-one] | 70 | – |
| [2H]C([2H])=C([2H])C(=O)N1C[C@H](C)N(c2nc(=O)n3c4c(c(-c5cc(Cl)c(F)cc5F)c(C(F)(F)F)cc24)SCC2(COC2)C3)C[C@H]1C (atropisomer, axis not shown) [Example 1434, (R)-8′-((2S,5R)-4-(Acryloyl-d3)-2,5-dimethylpiperazin-1-yl)-11′-(5-chloro-2,4-difluorophenyl)-10′-(trifluoromethyl)-2′H,4′H,6′H-spiro[oxetane-3,3′-[1,4]thiazepino[2,3,4-ij]quinazolin]-6′-one] | 82 | – |
| C=CC(=O)N1[C@H](C)CN(c2nc(=O)n3c4c(c(-c5cc(Cl)c(F)cc5F)c(C(F)(F)F)cc24)SC[C@@H]3CN2CC[C@H](F)C2)C[C@@H]1C (atropisomer, axis not shown) [Example 1438, (3S,10S)-7-((3S,5R)-4-acryloyl-3,5-dimethylpiperazin-1-yl)-10-(5-chloro-2,4-difluorophenyl)-3-(((S)-3-fluoropyrrolidin-1-yl)methyl)-9-(trifluoromethyl)-2,3-dihydro-5H-[1,4]thiazino[2,3,4-ij]quinazolin-5-one] | 54 | – |
| C=CC(=O)N1[C@H](C)CN(c2nc(=O)n3c4c(c(-c5cc(Cl)c(F)cc5F)c(C(F)(F)F)cc24)SC[C@@H]3CN2CC[C@H](F)C2)C[C@@H]1C (atropisomer, axis not shown) [Example 1439, (3S,10R)-7-((3S,5R)-4-acryloyl-3,5-dimethylpiperazin-1-yl)-10-(5-chloro-2,4-difluorophenyl)-3-(((S)-3-fluoropyrrolidin-1-yl)methyl)-9-(trifluoromethyl)-2,3-dihydro-5H-[1,4]thiazino[2,3,4-ij]quinazolin-5-one] | 73 | – |
| C=CC(=O)N1[C@H](C)CN(c2nc(=O)n3c4c(c(-c5cc(Cl)c(F)cc5F)c(C(F)(F)F)cc24)SC[C@@H](N2CCCC2)C3)C[C@@H]1C (atropisomer, axis not shown) [Example 1440, (3S,11S)-8-((3S,5R)-4-acryloyl-3,5-dimethylpiperazin-1-yl)-11-(5-chloro-2,4-difluorophenyl)-3-(pyrrolidin-1-yl) 10-(trifluoromethyl)-3,4-dihydro-[1,4]thiazepino[2,3,4-ij]quinazolin-6-one] | 51 | – |
| C=CC(=O)N1[C@H](C)CN(c2nc(=O)n3c4c(c(-c5cc(Cl)c(F)cc5F)c(C(F)(F)F)cc24)SC[C@@H](N2CCCC2)C3)C[C@@H]1C (atropisomer, axis not shown) [Example 1441, (3S,11R)-8-((3S,5R)-4-acryloyl-3,5-dimethylpiperazin-1-yl)-11-(5-chloro-2,4-difluorophenyl)-3-(pyrrolidin-1-yl) 10-(trifluoromethyl)-3,4-dihydro-2H,6H-[1,4]thiazepino[2,3,4-ij]quinazolin-6-one] | 79 | – |
| C=CC(=O)N1C[C@H](C)N(c2nc(=O)n3c4c(c(-c5cc(Br)c(F)cc5F)c(C(F)(F)F)cc24)SCC2(COC2)C3)C[C@H]1C (atropisomer, axis not shown) [Example 1445, (R)-8′-((2S,5R)-4-Acryloyl-2,5-dimethylpiperazin-1-yl)-11′-(5-bromo-2,4-difluorophenyl)-10′-(trifluoromethyl)-2′H,4′H,6′H-spiro[oxetane-3,3′-[1,4]thiazepino[2,3,4-ij]quinazolin]-6′-one] | 95 | – |
| C=CC(=O)N1C[C@H](C)N(c2nc(=O)n3c4c(c(-c5cc(Br)c(F)cc5F)c(C(F)(F)F)cc24)SCC2(COC2)C3)C[C@H]1C (atropisomer, axis not shown) [Example 1446, (S)-8′-((2S,5R)-4-Acryloyl-2,5-dimethylpiperazin-1-yl)-11′-(5-bromo-2,4-difluorophenyl)-10′-(trifluoromethyl)-2′H,4′H,6′H-spiro[oxetane-3,3′-[1,4]thiazepino[2,3,4-ij]quinazolin]-6′-one] | 45 | – |
| C=CC(=O)N1[C@H](C)CN(c2nc(=O)n3c4c(c(-c5cc(Br)c(F)cc5F)c(C(F)(F)F)cc24)SC[C@@H]3COC)C[C@@H]1C (atropisomer, axis not shown) [Example 1447, (3S,10R)-7-((3S,5R)-4-Acryloyl-3,5-dimethylpiperazin-1-yl)-10-(5-bromo-2,4-difluorophenyl)-3-(methoxymethyl)-9-(trifluoromethyl)-2,3-dihydro-5H-[1,4]thiazino[2,3,4-ij]quinazolin-5-one] | 97 | – |
| C=CC(=O)N1[C@H](C)CN(c2nc(=O)n3c4c(c(-c5cc(Br)c(F)cc5F)c(C(F)(F)F)cc24)SC[C@@H]3COC)C[C@@H]1C (atropisomer, axis not shown) [Example 1448, (3S,10S)-7-((3S,5R)-4-Acryloyl-3,5-dimethylpiperazin-1-yl)-10-(5-bromo-2,4-difluorophenyl)-3-(methoxymethyl)-9-(trifluoromethyl)-2,3-dihydro-5H-[1,4]thiazino[2,3,4-ij]quinazolin-5-one] | 95 | – |
| C=CC(=O)N1C[C@H](C)N(c2nc(=O)n3c4c(c(-c5cc(Cl)c(F)cc5F)c(C(F)(F)F)cc24)SCC2(COC2)C3)C[C@H]1C (single isomer, unassigned) [Example 1120] | – | 64.9 |
| C=CC(=O)N1C[C@H](C)N(c2nc(=O)n3c4c(c(-c5cc(Cl)c(F)cc5F)c(C(F)(F)F)cc24)SCC2(COC2)C3)C[C@H]1C (single isomer, unassigned) [Example 1121] | – | 95.5 |
| C=CC(=O)N1[C@H](C)CN(c2nc(=O)n3c4c(c(-c5cc(Cl)c(F)cc5F)c(C(F)(F)F)cc24)SC[C@@H]3COC)C[C@@H]1C (single isomer, unassigned) [Example 1139] | – | 95.9 |

From US20230107642A1 (Erasca, Inc., priority 2020, published 2023)
